Consider 15 molecules from ChEMBL document CHEMBL1153365, “Identification of potent pyrimidine inhibitors of phosphodiesterase 7 (PDE7) and their ability to inhibit T cell proliferation” (Bioorg Med Chem Lett, 2009).

Data set [1] can be described thus: Inhibition of PDE7.
For data set [2], the system named is PBMC. Kind of data set: Immunosuppressant activity in PBMC assessed as antiproliferation after 3 days by [3H]thymidine incorporation assay. The data set is classed as functional, cell-based. The conditions noted are these: Homo sapiens. In general terms: Uptake of a labelled nucleoside into DNA is a usual measure of proliferation.
Data set [3] concerns the target cGMP-specific 3',5'-cyclic phosphodiesterase (Homo sapiens, UniProt O76074). Kind of data set: Inhibition of PDE5.
Data set [4] in a line: Inhibition of PDE1.
A short description of data set [5]: Inhibition of PDE4.
Data set [6] in a line: Aqueous solubility at pH 6.5. The data set is classed as physicochemical.
The nature of data set [7]: Inhibition of PDE3.
Data set [8] deals with PBMC. Kind of data set: Immunosuppressant activity in PBMC assessed as cytotoxicity. The data set is classed as functional, cell-based. The note with it: Homo sapiens.
The subject of data set [9] is Splenocyte. Kind of data set: Immunosuppressant activity in wild type splenocyte assessed as antiproliferation. Format: functional, cell-based. The note with it: Mus musculus.
Data set [10] is described as follows: Immunosuppressant activity in PDE7 knockout splenocyte assessed as antiproliferation. Format: functional, cell-based.

In brackets after ≈: the same amount, converted by molar mass.

For `CCOC(=O)c1sc(Nc2nc(NCc3ccc(S(N)(=O)=O)cc3)c3c(ncn3CC)n2)nc1C`, the IC50 in data set [1] was 0.01 µM.

In data set [1], `CCOC(=O)c1sc(Nc2nc(N3CCNCC3)c3c(n2)N(Cc2cc(OC)c(OC)c(OC)c2)CC3)nc1C` displayed a half-maximal inhibitory concentration (IC50) of 0.006 µM.

Turning to `CCOC(=O)c1sc(Nc2nccc(NCc3ccc(S(N)(=O)=O)cc3)n2)nc1C`, the concentration for half-maximal inhibition (IC50) in [1] stood at 0.22 µM.

On to `CCOC(=O)c1sc(Nc2nc(N3CCC(N(C)C)CC3)cc(N3CCCC(CO)C3)n2)nc1C` (stereo not given), for which the IC50 in data set [2] was 5 µM; in [1], 0.12 µM; in data set [3], above 10 µM; in data set [4], 11 µM; in [5], 9.3 µM; in [7] it was above 50 µM. Further, the IC50 in data set [8] is above 25 µM. Moreover, the solubility in data set [6] was above 20 µg/mL.

As for `CCOC(=O)c1sc(Nc2nc(N3CCC(O)CC3)cc(N3CCC(N(C)C)CC3)n2)nc1C`, the IC50 is 1.5 µM in [2]; 0.076 µM in [1]; above 10 µM in [3]; 23 µM in data set [4]; above 10 µM in data set [5]; above 50 µM in [7]. For the same molecule, the IC50 in data set [8] was above 25 µM. In data set [6], this molecule returned a solubility of 20 µg/mL (≈ 40.8 µM).

`CCOC(=O)c1sc(Nc2nc(N3CCC(O)CC3)cc(N3CCC(O)CC3)n2)nc1C`: the half-inhibitory concentration (IC50) was 0.12 µM in data set [2]; 0.063 µM in data set [1]; 0.7 µM in [3]; 4.9 µM in data set [4]; 0.21 µM in data set [9]; 3.2 µM in data set [5]. The concentration for half-maximal inhibition (IC50) in [7] is 20 µM; in [10], 0.15 µM; in data set [8], above 25 µM. This molecule also returned a solubility in [6] of 20 µg/mL (≈ 43.2 µM).

As to `CCOC(=O)c1sc(Nc2nc(N3CCOCC3)cc(N3CCC(N(C)C)CC3)n2)nc1C`, the concentration for half-maximal inhibition (IC50) is 2 µM in data set [2]; 0.13 µM in data set [1]; above 10 µM in data set [3]; 15 µM in data set [4]; 9.5 µM in [5]; 13 µM in [7]. For the same molecule, the half-inhibitory concentration (IC50) in data set [8] is above 25 µM. The solubility in [6] was above 20 µg/mL.

With `CCOC(=O)c1sc(Nc2nc(N3CCC(N(C)C)CC3)cc(N3CCNC(C(N)=O)C3)n2)nc1C` (stereo not given), the IC50 is 3.1 µM in [2]; 0.082 µM in [1]; 6.5 µM in [3]; 23 µM in data set [4]; 8 µM in [5]; above 50 µM in [7]. Besides, the half-maximal inhibitory concentration (IC50) in data set [8] is above 25 µM. This molecule had a solubility in [6] above 20 µg/mL.

Take `CCOC(=O)c1sc(Nc2nc(NCc3ccc(OC)c(OC)c3)cc(N3CCNCC3)n2)nc1C`: the IC50 in data set [2] was 1.2 µM; in data set [1] it was 0.031 µM; in [3] it was 0.32 µM; in data set [4] it was above 10 µM; in [5] it was 2.3 µM; in data set [7], 8 µM. In addition, the 50% inhibitory concentration (IC50) in data set [8] is 12 µM. In [6], the solubility was above 20 µg/mL.

On to `CCOC(=O)c1sc(Nc2nc(N3CCN(C)CC3)cc(N3CCN(CCN(C)C)CC3)n2)nc1C`, for which the half-maximal inhibitory concentration (IC50) is 2.2 µM in data set [2]; 0.056 µM in [1]; above 10 µM in data set [3]; 27 µM in [4]; 9.4 µM in data set [5]; 19 µM in data set [7]. Besides, in data set [8], the IC50 was 15 µM. In addition, the solubility in [6] is above 20 µg/mL.

As to `CCOC(=O)c1sc(Nc2nc(N(C)Cc3cc(OC)c(OC)c(OC)c3)cc(N3CCNCC3)n2)nc1C`, the concentration for half-maximal inhibition (IC50) was 0.45 µM in data set [2]; 0.01 µM in data set [1]; 7.6 µM in data set [3]; 7.9 µM in data set [4]; 3.2 µM in [5]; 22 µM in [7]. The half-inhibitory concentration (IC50) in data set [8] was found to be 14 µM. In [6], this molecule registered a solubility above 20 µg/mL.

For the molecule `CCOC(=O)c1sc(Nc2nc(NCc3ccc(S(N)(=O)=O)cc3)cc(N3CCNCC3)n2)nc1C`, the IC50 in data set [2] worked out at 7.2 µM; in [1], 0.01 µM; in data set [3] it was 0.072 µM; in data set [4], 4.1 µM; in data set [5] it was 0.22 µM; in data set [7] it was 2.8 µM. Also, in data set [8], the IC50 is above 25 µM. Also, the concentration in solution in data set [6] (solubility) came to 20 µg/mL (≈ 37.5 µM).

For the molecule `CCOC(=O)c1sc(Nc2nc(N(C)Cc3cc(OC)c(OC)c(OC)c3)cc(N3CCN(C)CC3)n2)nc1C`, the IC50 in data set [2] turned out to be 0.69 µM; in [1] it was 0.039 µM; in data set [3], 5.2 µM; in data set [4], 4.1 µM; in [5], 5.1 µM; in data set [7], 27 µM. In addition, the concentration for half-maximal inhibition (IC50) in data set [8] was above 25 µM. Besides, in data set [6], the solubility was above 20 µg/mL.

For `CCOC(=O)c1sc(Nc2nc(NC)cc(NCc3ccc(S(N)(=O)=O)cc3)n2)nc1C`, the IC50 in data set [2] was 0.5 µM; in [1], 0.1 µM; in data set [3], 0.065 µM; in [4], above 10 µM; in data set [5], 0.03 µM; in [7], above 50 µM. Further, the IC50 in data set [8] is above 25 µM.

For `CCOC(=O)c1sc(Nc2nc(N3CCC(N(C)C)CC3)cc(N3CCN(C)CC3)n2)nc1C`, the IC50 was 2.5 µM in data set [2]; 0.083 µM in [1]; above 10 µM in data set [3]; above 50 µM in data set [4]; above 10 µM in data set [5]; 46 µM in [7]. The 50% inhibitory concentration (IC50) in [8] was determined as 15 µM. The solubility in data set [6] was above 20 µg/mL.

One may read the IC50 as the concentration needed to halve the response being measured. Broadly, the solubility is how much of the substance goes into solution per volume. Low readings indicate little dissolved substance, high ones much dissolved substance.
